Results reported in article PMC9917184, “Synthesis and Biological Evaluation of Potential Oncoimmunomodulator Agents” (International Journal of Molecular Sciences, 2023).
Like-named read-outs stand apart in the source and are kept apart here.

Key:
[1] = test system: IL-6; assay: IL-6 secretion to the media by ELISA; type: cell-based, human; conditions: 100 μM, 24 h, control = 100
Description: We determined the effect of these compounds on the secretion of IL-6 in monocultures of MCF-7 cells, to establish the effect on cancer cells in monocultures of immune cells THP-1 and in co-cultures of MCF-7 and THP-1 (1:5 proportion). Assays were performed by ELISA using cell media after treatments with selected compounds at 100 μM for 24 h.

[2] = test system: MCF-7; assay: MCF-7 cell viability in co-culture with THP-1 cells; type: cell-based, human; conditions: for viability at 100 µM / inhibition at 100 µM: Homo sapiens; for viability at 100 µM: read-out: cancer cell viability (MCF-7); for inhibition at 100 µM: MCF7, read-out: cancer cell inhibition (MCF-7)
Description: The effect of the synthesized compounds on tumor cell proliferation in the presence of human monocytic leukemia cell line THP-1 was also studied. This assay was carried out using MCF-7 as the cancer cell line and different proportions of immune cells. Standard proportions for this assay were 1:5 cancer/immune, and we also carried out this assay using a 2:1 proportion of cancer cells as regards immune THP-1 cells. Assays were performed after 24 and 48 h of treatment and using 100 μM doses of selected compounds.
To study the effect of the compounds on the cell viability in co-culture with Jurkat T cells or THP-1 cells, 10^5 or 2 × 10^5 of the corresponding cancer cells line per well were seeded and incubated for 24 h, then the medium was changed by one cell culture medium supplemented with IFN-γ (10 ng/mL; human, Invitrogen®) and containing 5 × 10^5 or 10^5 Jurkat T cells or THP-1, respectively, per well and 100 µM of the corresponding compound or DMSO for the […] control. After 24 h/48 h of incubation, supernatants were collected to determine Jurkat T or THP-1 living cells, and on the other hand, corresponding cancer cells were collected with trypsin. Both types of suspension cells were fixed with 4% in PBS paraformaldehyde and counted by flow cytometry.

[3] = test system: c-Myc; assay: Total c-Myc relative quantification by flow cytometry in cancer cell lines; type: cell-based, human; conditions: 24 h
[4] = test system: Jurkat T cells; assay: Jurkat T cell viability in co-culture with cancer cells (flow cytometry count); type: cell-based; conditions: Homo sapiens, 24 h, read-out: percentage of living Jurkat cells relative to non-treated co-cultures
How it was run: (§1)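 HT-29, MCF-7 or A-549 cells in IFN-γ (10 ng/mL) medium were co-cultured with 5 × 10^5 Jurkat T cells per well and 100 µM compound (DMSO control) for 24 h. Jurkat cells from the supernatant and trypsinized cancer cells were PFA-fixed and counted by flow cytometry. Living cells were expressed as % of untreated co-culture.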

[5] = test system: HT-29; assay: HT-29 cell viability in co-culture with Jurkat T cells (flow cytometry count); type: cell-based, human; conditions: 24 h; for viability at 100 µM: Homo sapiens, HT-29/Jurkat T co-culture, IFN-γ stimulated, read-out: percentage of living HT-29 cells relative to non-treated co-cultures
How it was run: as §1

[6] = test system: A-549; assay: A-549 cell viability in co-culture with Jurkat T cells (flow cytometry count); type: cell-based, human; conditions: 24 h; for viability at 100 µM: Homo sapiens, A549, A-549/Jurkat T co-culture, IFN-γ stimulated, read-out: percentage of living A-549 cells relative to non-treated co-cultures
How it was run: as §1

[7] = test system: membrane VEGFR-2; assay: Membrane VEGFR-2 relative quantification by flow cytometry in cancer cells co-cultured with Jurkat T cells; type: cell-based, human; conditions: 100 μM, 24 h; for %VEGFR2 (membrane): relative to non-treated co-cultures
How it was run: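 Interferon γ-stimulated human cancer cells co-cultured with Jurkat T cells and treated 24 h with compounds at 100 μM. Cells then fixed in 4% paraformaldehyde and co-stained with Alexa Fluor 647 anti-PD-L1 and FITC anti-VEGFR-2. Membrane levels quantified together by flow cytometry.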

[8] = MCF7, 24 h, 1:5 MCF-7/THP-1, 100 μM, 24 h, control = 100
[9] = MCF7, 24 h, 2:1 MCF-7/THP-1, 100 μM, 24 h, control = 100
[10] = MCF7, 48 h, 1:5 MCF-7/THP-1, 100 μM, 48 h, control = 100
[11] = MCF7, 48 h, 2:1 MCF-7/THP-1, 100 μM, 48 h, control = 100
[12] = A-549, 100 µM, relative to negative control (DMSO)
[13] = HT-29, 100 µM, detected target relative to negative control (DMSO)
[14] = MCF-7, 100 µM, relative to negative control (DMSO)
[15] = A549 co-cultured with Jurkat T cells
[16] = HT29 co-cultured with Jurkat T cells
[17] = MCF7 co-cultured with Jurkat T cells
[18] = co-cultured with Jurkat T cells, 100 μM

With `COc1ccc(C(OCCc2ccc(CCn3cc(-c4cccc(Br)c4)nn3)cc2)(c2ccccc2)c2ccc(OC)cc2)cc1` [Compound 5, 1-(4-(2-(bis(4-methoxyphenyl)(phenyl)methoxy)ethyl)phenethyl)-4-(3-bromophenyl)-1H-1,2,3-triazole] the “Percentage of secreted IL-6 to the media” value ([1]; MCF7 + THP-1 co-culture (1:5)) was 137 ± 24%, the “Percentage of secreted IL-6 to the media” value ([1]; MCF7 monoculture) was 73 ± 29% and the “Percentage of secreted IL-6 to the media” value ([1]; THP-1 monoculture) was 173 ± 24%. For the same molecule, the viability at 100 µM [2, 8] was 52 ± 4%, the viability at 100 µM [2, 9] was 107 ± 3% and the viability at 100 µM [2, 10] was 42 ± 10%. The viability at 100 µM [2, 11] was 69 ± 10%, the inhibition at 100 µM ([2]; 2:1 MCF-7/THP-1, 100 μM, 48 h) was 30% and the “% c-Myc” value [3, 12] was 72 ± 9%. The “% c-Myc” value [3, 13] was 66 ± 10%, the “% c-Myc” value [3, 14] was 61 ± 11% and the viability at 100 µM ([4]; A-549/Jurkat T co-culture) was 93 ± 9%. It also gave a viability at 100 µM ([4]; HT-29/Jurkat T co-culture) of 48 ± 1%, a viability at 100 µM ([4]; MCF-7/Jurkat T co-culture) of 96 ± 8% and a viability at 100 µM [5] of 68 ± 3%. For the same molecule, the viability at 100 µM [6] was 105 ± 3%, the “%VEGFR2 (membrane)” value [7, 15] was 92 ± 2% and the “%VEGFR2 (membrane)” value [7, 16] was 85 ± 4%. The “%VEGFR2 (membrane)” value [7, 17] was 85 ± 4%.

For `COc1ccc(C(OCCc2ccc(CCn3cc(-c4ccc(Br)cc4)nn3)cc2)(c2ccccc2)c2ccc(OC)cc2)cc1` [Compound 3, 1-(4-(2-(bis(4-methoxyphenyl)(phenyl)methoxy)ethyl)phenethyl)-4-(4-bromophenyl)-1H-1,2,3-triazole], the “Percentage of secreted IL-6 to the media” value ([1]; MCF7 + THP-1 co-culture (1:5)) was 156 ± 12%, the “Percentage of secreted IL-6 to the media” value ([1]; MCF7 monoculture) was 92 ± 4% and the “Percentage of secreted IL-6 to the media” value ([1]; THP-1 monoculture) was 183 ± 5%. The “cancer cell viability (MCF-7)” value ([2]; 1:5 MCF-7/THP-1, 100 μM, 24 h, control = 100, 100 µM) was 52 ± 7%, the viability at 100 µM [2, 8] was 50% and the viability at 100 µM [2, 9] was 83 ± 9%. For the same molecule, the viability at 100 µM [2, 10] was 28 ± 2%, the viability at 100 µM [2, 11] was 51 ± 17% and the inhibition at 100 µM ([2]; 2:1 MCF-7/THP-1, 100 μM, 48 h) was 50%. The “% c-Myc” value [3, 12] was 66 ± 5%, the “% c-Myc” value [3, 13] was 67 ± 8% and the “% c-Myc” value [3, 14] was 65 ± 4%. The viability at 100 µM ([4]; A-549/Jurkat T co-culture) was 86 ± 4%, the viability at 100 µM ([4]; HT-29/Jurkat T co-culture) was 108 ± 33% and the viability at 100 µM ([4]; MCF-7/Jurkat T co-culture) was 75 ± 10%. For the same molecule, the viability at 100 µM [5] was 111 ± 5%, the “inhibition rate of HT-29 cell viability” value [5, 18] was “not active” and the viability at 100 µM [6] was 75 ± 7%. For the same molecule, the “inhibition rate of A-549 cell viability” value [6, 18] was “active”, the “%VEGFR2 (membrane)” value [7, 15] was 73 ± 4% and the “membrane VEGFR-2 inhibition rate” value ([7]; A-549 co-cultured with Jurkat T cells) was “around 20%”. For the same molecule, the “%VEGFR2 (membrane)” value [7, 16] was 81 ± 7%, the “membrane VEGFR-2 inhibition rate” value ([7]; HT-29 co-cultured with Jurkat T cells) was “around 20%” and the “%VEGFR2 (membrane)” value [7, 17] was 81 ± 4%. The “membrane VEGFR-2 inhibition rate” value ([7]; MCF-7 co-cultured with Jurkat T cells) was “around 20%”.

`Cc1c(COc2ccc(CN3CCCCC3C(=O)O)cc2Br)cccc1-c1ccccc1` (stereo not shown) [BMS-8, reference compound] was tested, and the “Percentage of secreted IL-6 to the media” value ([1]; MCF7 monoculture) was 41 ± 65%, the viability at 100 µM [2, 8] was 91 ± 30% and the viability at 100 µM [2, 9] was 100 ± 4%. For the same molecule, the viability at 100 µM [2, 10] was 42 ± 5%, the viability at 100 µM [2, 11] was 58 ± 10% and the “% c-Myc” value [3, 12] was 142 ± 8%. For the same molecule, the “% c-Myc” value [3, 13] was 119 ± 9%, the “% c-Myc” value [3, 14] was 130 ± 12% and the viability at 100 µM ([4]; A-549/Jurkat T co-culture) was 99 ± 9%. It also gave a viability at 100 µM ([4]; HT-29/Jurkat T co-culture) of 148 ± 11%, a viability at 100 µM ([4]; MCF-7/Jurkat T co-culture) of 53 ± 27% and a viability at 100 µM [5] of 34 ± 5%. For the same molecule, the viability at 100 µM [6] was 111 ± 9%, the “%VEGFR2 (membrane)” value [7, 15] was 104 ± 9% and the “%VEGFR2 (membrane)” value [7, 16] was 63 ± 4%. The “%VEGFR2 (membrane)” value [7, 17] was 100 ± 2%.

For `COc1ccc(C(OCCc2ccc(CCn3cc(-c4ccccc4Br)nn3)cc2)(c2ccccc2)c2ccc(OC)cc2)cc1` [Compound 7, 1-(4-(2-(bis(4-methoxyphenyl)(phenyl)methoxy)ethyl)phenethyl)-4-(2-bromophenyl)-1H-1,2,3-triazole], the “Percentage of secreted IL-6 to the media” value ([1]; MCF7 + THP-1 co-culture (1:5)) was 115 ± 4%, the “Percentage of secreted IL-6 to the media” value ([1]; MCF7 monoculture) was 91 ± 39% and the “Percentage of secreted IL-6 to the media” value ([1]; THP-1 monoculture) was 158 ± 11%. For the same molecule, the viability at 100 µM [2, 8] was 42 ± 10%, the viability at 100 µM [2, 9] was 92 ± 11% and the viability at 100 µM [2, 10] was 41 ± 10%. For the same molecule, the viability at 100 µM [2, 11] was 60 ± 13%, the inhibition at 100 µM ([2]; 2:1 MCF-7/THP-1, 100 μM, 48 h) was 40% and the “% c-Myc” value [3, 12] was 67 ± 6%. For the same molecule, the “% c-Myc” value [3, 13] was 43 ± 7%, the “% c-Myc” value [3, 14] was 51 ± 3% and the viability at 100 µM ([4]; A-549/Jurkat T co-culture) was 79 ± 11%. For the same molecule, the viability at 100 µM ([4]; HT-29/Jurkat T co-culture) was 70 ± 8%, the viability at 100 µM ([4]; MCF-7/Jurkat T co-culture) was 94 ± 12% and the viability at 100 µM [5] was 52 ± 6%. For the same molecule, the viability at 100 µM [6] was 100 ± 4%, the “%VEGFR2 (membrane)” value [7, 15] was 89 ± 5% and the “%VEGFR2 (membrane)” value [7, 16] was 93 ± 3%. The “%VEGFR2 (membrane)” value [7, 17] was 100 ± 0%.
